We go through 18 molecules from patent US8618289B2 (Ambit Biosciences Corporation, priority 2008, dated 2013).

Assay [1] has as its target T1, RAF kinases (Homo sapiens, UniProt P04049). To be noted: read-out: RAF1 Kd; RAF1.
The target of assay [2] is T2, RAF kinases (Homo sapiens, UniProt P15056, V600E). The following applies: read-out: BRAF V600E Kd; BRAF V600E.
Assay [3] relates to 290 distinct kinases tested excluding mutant variants (321 in the larger panel).
Experimental: Competition binding assays used herein were developed, validated and performed as described in Fabian et al., Nature Biotechnology 2005, 23, 329-336. […] The liganded beads were blocked with excess biotin and washed with blocking buffer (SeaBlock (Pierce), 1% BSA, 0.05% Tween 20, 1 mM DTT) to remove unbound ligand and to reduce non-specific binding. […] Test compounds were prepared as 100× stocks in DMSO and rapidly diluted into the aqueous environment. DMSO was added to control assays lacking a test compound. Primary screen interactions were performed in polypropylene 384-well plates in a final volume of 34 μt, while Kd determinations were performed in polystyrene 96-well plates in a final volume of 135 pt. […] The kinase concentration in the eluates was measured by quantitative PCR. Each kinase was tested individually against each compound. Kds were determined using eleven serial threefold dilutions. A selectivity score, which is a quantitative measure of selectivity of a compound against a panel of enzymes, may be calculated for a compound by dividing the number of enzymes for which a compound meets a set criteria, (for example, a binding constant of 100 nM or less), by the total number of enzymes tested. […] (Note, for those compounds tested in a larger kinase panel, as indicated by an asterisk (*) next to the S35 score, the divisor is 321 (i.e. the larger panel contains 321 distinct kinases, excluding mutant variants.)).
Assay [4] relates to MEK1 phosphorylation in the A375 human melanoma cell line. The assay can be described thus: cells. To be noted: A-375, read-out: pMEK IC50.
In assay [5] the test system is A375 cells. The assay can be described thus: cells. To be noted: Homo sapiens, A-375, read-out: A375 Viability EC50.
Assay [6] addresses T3, RAF kinases (Homo sapiens, UniProt P15056). The assay can be described thus: biochemical.
The target in assay [7] is T3, RAF kinases. The following applies: read-out: BRAF WT Kd; BRAF WT.
The target of assay [8] is T1, RAF kinases. The assay can be described thus: biochemical.
Assay [9] deals with T2, RAF kinases. The assay can be described thus: biochemical.
The mark [10] stands for this setting: no asterisk: panel of 290 distinct kinases.

Molecules are shown by their SMILES. Like-named read-outs stand apart in the source and are kept apart here.

T1 sequence (P04049 whole entry): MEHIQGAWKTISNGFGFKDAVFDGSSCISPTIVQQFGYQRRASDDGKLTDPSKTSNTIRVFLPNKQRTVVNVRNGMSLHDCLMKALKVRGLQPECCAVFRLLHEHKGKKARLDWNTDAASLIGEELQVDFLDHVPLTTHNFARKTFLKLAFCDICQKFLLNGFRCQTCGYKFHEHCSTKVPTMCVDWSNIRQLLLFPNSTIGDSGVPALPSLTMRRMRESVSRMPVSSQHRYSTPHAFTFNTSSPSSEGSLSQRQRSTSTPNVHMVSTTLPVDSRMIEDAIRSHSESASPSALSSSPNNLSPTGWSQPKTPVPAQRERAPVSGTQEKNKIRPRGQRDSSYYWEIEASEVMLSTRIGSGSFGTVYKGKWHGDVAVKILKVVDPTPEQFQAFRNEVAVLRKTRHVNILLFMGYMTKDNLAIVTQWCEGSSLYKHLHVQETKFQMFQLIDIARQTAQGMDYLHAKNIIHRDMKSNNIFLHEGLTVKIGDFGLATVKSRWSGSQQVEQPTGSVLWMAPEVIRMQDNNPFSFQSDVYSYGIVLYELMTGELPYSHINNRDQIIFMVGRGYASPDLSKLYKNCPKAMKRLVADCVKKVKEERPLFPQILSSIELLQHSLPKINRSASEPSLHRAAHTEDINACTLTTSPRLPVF
T3 sequence (P15056 whole entry): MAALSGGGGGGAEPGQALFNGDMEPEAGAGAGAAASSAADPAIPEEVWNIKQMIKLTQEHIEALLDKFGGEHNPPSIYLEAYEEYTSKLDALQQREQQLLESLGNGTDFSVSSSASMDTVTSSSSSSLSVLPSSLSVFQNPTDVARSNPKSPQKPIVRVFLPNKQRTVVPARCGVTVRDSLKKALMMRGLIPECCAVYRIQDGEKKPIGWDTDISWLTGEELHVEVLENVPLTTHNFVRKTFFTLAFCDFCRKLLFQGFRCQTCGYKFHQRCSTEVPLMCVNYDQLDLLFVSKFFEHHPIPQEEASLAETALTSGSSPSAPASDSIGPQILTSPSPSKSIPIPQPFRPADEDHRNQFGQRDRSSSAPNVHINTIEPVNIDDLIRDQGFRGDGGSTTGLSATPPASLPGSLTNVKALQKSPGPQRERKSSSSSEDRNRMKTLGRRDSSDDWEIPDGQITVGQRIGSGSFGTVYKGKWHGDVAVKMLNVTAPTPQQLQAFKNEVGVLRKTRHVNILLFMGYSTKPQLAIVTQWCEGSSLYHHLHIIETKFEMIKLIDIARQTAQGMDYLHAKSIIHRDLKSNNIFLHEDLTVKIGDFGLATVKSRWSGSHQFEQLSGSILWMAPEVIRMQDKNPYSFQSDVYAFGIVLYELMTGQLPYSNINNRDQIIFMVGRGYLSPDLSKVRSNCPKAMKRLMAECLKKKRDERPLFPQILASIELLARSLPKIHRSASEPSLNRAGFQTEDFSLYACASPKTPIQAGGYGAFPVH
T2 sequence (P15056 whole entry V600E): as the sequence (P15056 whole entry) above, with V600E counted along it

A word on the Kd: it is the constant that tells how readily two partners part at equilibrium. By IC50 is commonly meant the concentration at which inhibition is half-maximal. By EC50 is commonly meant the concentration giving half of the maximal effect. On to `CCn1nc(C(C)(C)C)cc1NC(=O)Nc1cccc(Sc2ncnc3cc(OC)c(OC)cc23)c1` [Ex 321, 1-(3-tert-butyl-1-ethyl-1H-pyrazol-5-yl)-3-(3-(6,7-dimethoxyquinazolin-4-ylthio)phenyl)urea], for which the Kd in [1] was less than 250 nM; in [2] it was less than 250 nM; in assay [6], 250 to 500 nM. Also, the S35 entry in assay [3] (setting [10]) is on record as “C (0.20 < C ≦ 0.40)”. The IC50 in [4] is 250 to 500 nM. In addition, the EC50 in [5] was 500 to 1000 nM.

As for `COc1cc2ncnc(Oc3cccc(NC(=O)Nc4cc(C5CC5)nn4-c4ccccc4)c3)c2cc1OC` [Ex 353, 1-(3-cyclopropyl-1-phenyl-1H-pyrazol-5-yl)-3-(3-(6,7-dimethoxyquinazolin-4-yloxy)phenyl)urea], the Kd in assay [1] was less than 250 nM; in assay [2], less than 250 nM; in assay [6] it was 250 to 500 nM. For the same molecule, the S35 entry in assay [3] (setting [10]) is given as “C (0.20 < C ≦ 0.40)”. Further, the half-inhibitory concentration (IC50) in [4] lay within 250 to 500 nM. The EC50 in assay [5] lay in the range of 250 to 500 nM.

Take `COc1ccc(-n2nc(C(C)(F)F)cc2NC(=O)Nc2cccc(Oc3ncnc4cc(OC)c(OC)cc34)c2)cc1` [Ex 315, 1-(3-(1,1-difluoroethyl)-1-(4-methoxyphenyl)-1H-pyrazol-5-yl)-3-(3-(6,7-dimethoxyquinazolin-4-yloxy)phenyl)urea]: the Kd in [7] was greater than 1000 nM; in assay [2], less than 250 nM; in assay [8] it was 500 to 1000 nM. In addition, the S35 result in [3] (setting [10]) was “D (D > 0.40)”. In addition, the IC50 in assay [4] was less than 250 nM. In addition, in assay [5], the EC50 is less than 250 nM.

In the case of `COc1cc2ncnc(Oc3cccc(NC(=O)Nc4cc(C(C)(F)F)nn4-c4cncc(F)c4)c3)c2cc1OC` [Ex 316, 1-(3-(1,1-difluoroethyl)-1-(5-fluoropyridin-3-yl)-1H-pyrazol-5-yl)-3-(3-(6,7-dimethoxyquinazolin-4-yloxy)phenyl)urea], the Kd in [1] was less than 250 nM; in assay [2] it was less than 250 nM; in [6], 250 to 500 nM. In assay [3] (setting [10]), the S35 entry was “C (0.20 < C ≦ 0.40)”. Further, in [4], the IC50 is 250 to 500 nM. Moreover, the EC50 in [5] was in the range of 500 to 1000 nM.

Turning to `COc1ccc(-n2nc(C(C)C)cc2NC(=O)Nc2cccc(Oc3ncnc4cc(OC)c(OC)cc34)c2)cc1` [Ex 348, 1-(3-(6,7-dimethoxyquinazolin-4-yloxy)phenyl)-3-(3-isopropyl-1-(4-methoxyphenyl)-1H-pyrazol-5-yl)urea], the values for the Kd in [7], in assay [2] and in assay [8] were greater than 1000 nM, less than 250 nM and 500 to 1000 nM, respectively. In addition, the S35 result in [3] (setting [10]) was “D (D > 0.40)”. Also, in [4], the IC50 was less than 250 nM. In addition, in [5], the EC50 is less than 250 nM.

Turning to `COc1cc2ncnc(Sc3cccc(NC(=O)Nc4cc(C(C)(C)C)nn4C4CCCCC4)c3)c2cc1OC` [Ex 331, 1-(3-tert-butyl-1-cyclohexyl-1H-pyrazol-5-yl)-3-(3-(6,7-dimethoxyquinazolin-4-ylthio)phenyl)urea], the S35 entry in assay [3] (setting [10]) was “B (0.10 < B ≦ 0.20)”. Also, the IC50 in assay [4] is less than 250 nM. In addition, the EC50 in [5] is greater than 1000 nM. Also, the Kd was 500 to 1000 nM in [8], 500 to 1000 nM in assay [6] and 250 to 500 nM in assay [9].

For the molecule `COc1cc2ncnc(Oc3cccc(NC(=O)Nc4cc(C(C)(C)C(F)(F)F)nn4-c4ccccc4)c3)c2cc1OC` [Ex 306, 1-(3-(6,7-dimethoxyquinazolin-4-yloxy)phenyl)-3-(1-phenyl-3-(1,1,1-trifluoro-2-methylpropan-2-yl)-1H-pyrazol-5-yl)urea], the S35 entry in assay [3] (setting [10]) is recorded as “D (D > 0.40)”. Moreover, in assay [4], the IC50 is less than 250 nM. Further, the dissociation constant Kd in [8] was greater than 1000 nM; in [6] it was greater than 1000 nM; in assay [9], 250 to 500 nM.

As to `COc1cc2nc(Cl)nc(Oc3cccc(NC(=O)Nc4cc(C(C)(C)C)on4)c3)c2cc1OC` [Ex 310, 1-(5-tert-butylisoxazol-3-yl)-3-(3-(2-chloro-6,7-dimethoxyquinazolin-4-yloxy)phenyl)urea], the Kd in assay [7] was greater than 1000 nM; in assay [8], 500 to 1000 nM; in assay [9], 500 to 1000 nM. Moreover, in assay [3] (setting [10]), the S35 result is recorded as “A (A ≦ 0.10)”. Besides, in assay [4], the IC50 is greater than 1000 nM. For the same molecule, the 50% effective concentration (EC50) in assay [5] was greater than 1000 nM.

Turning to `COc1cc2ncnc(Sc3cccc(NC(=O)Nc4cc(C(F)(F)F)nn4-c4ccc(C)cc4)c3)c2cc1OC` [Ex 199, 1-[3-(6,7-dimethoxyquinazolin-4-ylthio)phenyl]-3-[1-p-tolyl-3-(trifluoromethyl)-1H-pyrazol-5-yl]urea], in [3] (asterisk: panel of 321 distinct kinases), the S35 entry is reported as “D* (D > 0.40)”. For the same molecule, the IC50 in assay [4] was less than 250 nM. Besides, in assay [5], the EC50 was greater than 1000 nM. Also, the Kd in assay [8], in assay [6] and in assay [9] was greater than 1000 nM in each case.

As for `COc1cc2ncnc(Oc3cccc(NC(=O)Nc4cc(C(C)(C)CO)no4)c3)c2cc1OC` [Ex 255, 1-(3-(6,7-dimethoxyquinazolin-4-yloxy)phenyl)-3-(3-(1-hydroxy-2-methylpropan-2-yl)isoxazol-5-yl)urea], the S35 result in assay [3] (setting [10]) is on record as “C (0.20 < C ≦ 0.40)”. The IC50 in assay [4] is greater than 1000 nM. For the same molecule, the EC50 in assay [5] is greater than 1000 nM. Also, the results for the dissociation constant Kd in [8], in [6] and in assay [9] were 250 to 500 nM, 250 to 500 nM and less than 250 nM, respectively.

As for `COc1cc2ncnc(Sc3cccc(NC(=O)Nc4cc(C(C)(C)C)nn4-c4ccc(C#N)cc4)c3)c2cc1OC` [Ex 329, 1-(3-tert-butyl-1-(4-cyanophenyl)-1H-pyrazol-5-yl)-3-(3-(6,7-dimethoxyquinazolin-4-ylthio)phenyl)urea], the S35 result in assay [3] (setting [10]) is on record as “D (D > 0.40)”. The IC50 in [4] was less than 250 nM. Besides, the dissociation constant (Kd) in assay [8] is 500 to 1000 nM; in assay [6], 250 to 500 nM; in assay [9], 250 to 500 nM.

With `COc1ccc(-n2nc(C(C)C)cc2NC(=O)Nc2cccc(Sc3ncnc4cc(OC)c(OC)cc34)c2)cc1` [Ex 349, 1-(3-(6,7-dimethoxyquinazolin-4-ylthio)phenyl)-3-(3-isopropyl-1-(4-methoxyphenyl)-1H-pyrazol-5-yl)urea], the Kd in [7] was greater than 1000 nM; in assay [2] it was less than 250 nM; in assay [8], 500 to 1000 nM. The S35 result in [3] (setting [10]) is “C (0.20 < C ≦ 0.40)”. For the same molecule, in assay [4], the IC50 was less than 250 nM. In [5], the EC50 was less than 250 nM.

`COc1cc2c(Sc3cccc(NC(=O)Nc4cc(C(C)(C)C)on4)c3)ncnc2cc1OCCN1CCN(CCO)CC1` [Ex 84, 1-(5-tert-butylisoxazol-3-yl)-3-(3-(7-(2-(4-(2-hydroxyethyl)piperazin-1-yl)ethoxy)-6-methoxyquinazolin-4-ylthio)phenyl)urea]: in assay [3] (setting [10]), the S35 entry was “D (D > 0.40)”. Besides, the IC50 in assay [4] is less than 250 nM. Further, in assay [5], the EC50 was greater than 1000 nM. Moreover, the Kd in assay [8] was 250 to 500 nM; in assay [6], 250 to 500 nM; in assay [9], less than 250 nM.

Consider `COc1cc2ncnc(Sc3cccc(NC(=O)Nc4cc(C(C)C)nn4-c4cccnc4)c3)c2cc1OC` [Ex 351, 1-(3-(6,7-dimethoxyquinazolin-4-ylthio)phenyl)-3-(3-isopropyl-1-(pyridin-3-yl)-1H-pyrazol-5-yl)urea], for which the Kd is less than 250 nM in assay [1], less than 250 nM in [2] and 500 to 1000 nM in assay [6]. For the same molecule, the S35 entry in [3] (setting [10]) is reported as “C (0.20 < C ≦ 0.40)”. Further, in [4], the IC50 is less than 250 nM. For the same molecule, in assay [5], the EC50 lay in the range of 250 to 500 nM.

In the case of `COc1cc2ncnc(Oc3cccc(NC(=O)Nc4cc(C(C)(C)C)nn4-c4ccc(=O)[nH]c4)c3)c2cc1OC` [Ex 317, 1-(3-tert-butyl-1-(6-oxo-1,6-dihydropyridin-3-yl)-1H-pyrazol-5-yl)-3-(3-(6,7-dimethoxyquinazolin-4-yloxy)phenyl)urea], the Kd in [7] was greater than 1000 nM; in assay [2], less than 250 nM; in [8] it was 500 to 1000 nM. Moreover, the S35 result in [3] (setting [10]) is listed as “D (D > 0.40)”. The IC50 in assay [4] is greater than 1000 nM. In addition, the EC50 in assay [5] is greater than 1000 nM.

Consider `COc1cc2ncnc(Oc3cccc(NC(=O)Nc4cc(C5(C(F)(F)F)CC5)nn4-c4ccc(C)cc4)c3)c2cc1OC` [Ex 346, 1-(3-(6,7-dimethoxyquinazolin-4-yloxy)phenyl)-3-(1-p-tolyl-3-(1-(trifluoromethyl)cyclopropyl)-1H-pyrazol-5-yl)urea], for which the S35 entry in assay [3] (setting [10]) is listed as “D (D > 0.40)”. In addition, the half-inhibitory concentration (IC50) in assay [4] was less than 250 nM. Moreover, the results for the Kd in assay [8], in assay [6] and in assay [9] were greater than 1000 nM, greater than 1000 nM and less than 250 nM, respectively.

Turning to `COc1cc2ncnc(Sc3cccc(NC(=O)Nc4cc(C(F)(F)F)nn4-c4cccc(C)c4)c3)c2cc1OC` [Ex 339, 1-(3-(6,7-dimethoxyquinazolin-4-ylthio)phenyl)-3-(1-m-tolyl-3-(trifluoromethyl)-1H-pyrazol-5-yl)urea], the S35 result in assay [3] (setting [10]) is “C (0.20 < C ≦ 0.40)”. The IC50 in assay [4] is less than 250 nM. The equilibrium dissociation constant (Kd) is 500 to 1000 nM in assay [8], greater than 1000 nM in assay [6] and 250 to 500 nM in [9].

On to `COc1cc2ncnc(Oc3cccc(NC(=O)Nc4cc(C(F)(F)F)nn4-c4cccc(C)c4)c3)c2cc1OC` [Ex 338, 1-(3-(6,7-dimethoxyquinazolin-4-yloxy)phenyl)-3-(1-m-tolyl-3-(trifluoromethyl)-1H-pyrazol-5-yl)urea], for which the Kd was less than 250 nM in assay [2], 250 to 500 nM in [8] and 500 to 1000 nM in assay [6]. The S35 entry in assay [3] (setting [10]) is reported as “C (0.20 < C ≦ 0.40)”. The IC50 in [4] was less than 250 nM. In addition, the EC50 in assay [5] was less than 250 nM.
